Bridge positions count the residues as written; N and C are the ends. Peptide text beside a SMILES is read from it.
Columns and labels:
native human plasmin [1] = target: T1, native human plasmin (Homo sapiens, UniProt P00747); experiment: Plasmin inhibitory assay (chromogenic peptide substrate); type: biochemical; settings: plant-derived peptide; 1 nM native human plasmin, 30 min pre-incubation, 0.1 M Tris-HCl, pH 8.0, 0.1 M NaCl, 0.005% Triton X-100; 100 μM Acetyl-Arg-Met(sulphone)-Tyr-Arg-pNA, 405 nm over 7 min; Morrison equation; n = 3 independent assays; read-out: inhibition constant (Ki)
T1 construct: incubated with 1 nM native human plasmin (Sigma-Aldrich); purchased Sigma-Aldrich
Method: (§1) A serial dilution of plant-derived [T4Y,I7R]SFTI-1 was incubated with 1 nM native human plasmin (Sigma-Aldrich) for 30 min in assay buffer (0.1 M Tris-HCl, pH 8.0, 0.1 M NaCl, and 0.005% Triton X-100) in low binding 96-well plates (Corning). […] The inhibition constant (Ki) was determined from three independent assays by the Morrison equation and non-linear regression using GraphPad Prism 6.

native human plasmin [2] = target: T1, native human plasmin; settings: substrate of plasmin assay; determination not described, no reference given; cited from earlier work
Method: as §1, with “non-lin ...” for “non-linear regression using GraphPad Prism 6.”

T1 sequence (P00747 581-810 limits assumed): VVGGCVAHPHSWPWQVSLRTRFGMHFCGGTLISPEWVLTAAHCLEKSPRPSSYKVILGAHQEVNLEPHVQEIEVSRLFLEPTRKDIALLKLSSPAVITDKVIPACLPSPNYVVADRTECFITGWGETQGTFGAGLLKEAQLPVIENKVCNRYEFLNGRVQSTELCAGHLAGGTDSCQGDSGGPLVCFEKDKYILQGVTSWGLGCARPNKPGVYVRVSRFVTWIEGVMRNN
T1 sequence (P00747 97-580 partner limits assumed): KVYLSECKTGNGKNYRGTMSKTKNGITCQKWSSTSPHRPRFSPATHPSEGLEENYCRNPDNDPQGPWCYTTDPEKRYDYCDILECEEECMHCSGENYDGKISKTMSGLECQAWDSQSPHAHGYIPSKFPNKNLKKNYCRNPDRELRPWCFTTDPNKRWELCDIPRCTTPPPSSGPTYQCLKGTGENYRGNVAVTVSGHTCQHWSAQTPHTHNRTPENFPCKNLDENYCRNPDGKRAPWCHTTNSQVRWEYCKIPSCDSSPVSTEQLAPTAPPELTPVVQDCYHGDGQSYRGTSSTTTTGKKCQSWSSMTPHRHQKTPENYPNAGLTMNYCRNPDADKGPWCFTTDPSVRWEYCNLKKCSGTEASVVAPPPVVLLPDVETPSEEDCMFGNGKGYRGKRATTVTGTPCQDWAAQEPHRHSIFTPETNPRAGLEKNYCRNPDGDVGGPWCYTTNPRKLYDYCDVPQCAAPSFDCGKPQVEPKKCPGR

## CC[C@H](C)[C@@H]1NC(=O)[C@@H]2CCCN2C(=O)[C@@H]2CCCN2C(=O)[C@H](CCCNC(=N)N)NC(=O)[C@H](CO)NC(=O)[C@H](CCCCN)NC(=O)[C@H](Cc2ccc(O)cc2)NC(=O)[C@@H]2CSSC[C@H](NC1=O)C(=O)N[C@@H](Cc1ccccc1)C(=O)N1CCC[C@H]1C(=O)N[C@@H](CC(=O)O)C(=O)NCC(=O)N[C@@H](CCCNC(=N)N)C(=O)N2 [[T4Y,I7R]SFTI-1] (cyclo(CFPDGRCYKSRPPI); disulfide 1-7)
Native human plasmin [1]
  Ki: 0.025 ± 0.004 nM

## Acetyl-Arg-Met(sulphone)-Tyr-Arg-pNA [colorimetric peptide substrate of plasmin]
Native human plasmin [2]
  Km: 23.5 µM

Source: article PMC6530601, “Rapid and Scalable Plant-Based Production of a Potent Plasmin Inhibitor Peptide” (Frontiers in Plant Science, 2019)
